Molecules are shown by their SMILES.

The assay concerns the target rhSYK (Homo sapiens, UniProt P43405). The conditions noted are these: read-out: rhSYK Activity; class symbol; where two forms are listed, one symbol per form.
Regarding `CC(O)(c1cnccn1)c1ncc(-c2cccc(Nc3nccc(C(F)(F)F)n3)c2)s1` (stereo not drawn) [Example 4A-22], the IC50 was less than 100 nM. For the compound `CC(O)(c1ncc(-c2cccc(Nc3nccc(C(F)(F)F)n3)c2)s1)C1CCC1` (stereo not drawn) [Example 4A-23], the IC50 is less than 100 nM.

Turning to `CC(C)C(O)(c1ncc(-c2cccc(Nc3nccc(C(F)(F)F)n3)c2)s1)C(C)C` [Example 4A-24], the IC50 is 100 to 1000 nM. Turning to `CC(=O)OCCC(C)(O)c1ncc(-c2cccc(Nc3nccc(C(F)(F)F)n3)c2)s1` (stereo not drawn) [Example 4A-25], the IC50 was in the range of 100 to 1000 nM. As to `CCOC(=O)C1(C(C)(O)c2ncc(-c3cccc(Nc4nccc(C(F)(F)F)n4)c3)s2)CC1` (stereo not drawn) [Example 4A-26], the IC50 is 100 to 1000 nM. Consider `OC(c1cccnc1)(c1nnco1)c1ncc(-c2cccc(Nc3nccc(C(F)(F)F)n3)c2)s1` (stereo not drawn) [Example 4A-27], for which the IC50 was in the range of 100 to 1000 nM. For the compound `CCC(=O)C(O)(CC)c1ncc(-c2cccc(Nc3nccc(C(F)(F)F)n3)c2)s1` (stereo not drawn) [Example 4A-28], the IC50 fell in the range of 100 to 1000 nM.

Consider `CC(O)(c1ccc(S(C)(=O)=O)s1)c1ncc(-c2cccc(Nc3nccc(C(F)(F)F)n3)c2)s1` (stereo not drawn) [Example 4A-29], for which the IC50 was in the range of 100 to 1000 nM. For the compound `OC(c1ccccn1)(c1nccs1)c1ncc(-c2cccc(Nc3nccc(C(F)(F)F)n3)c2)s1` (stereo not drawn) [Example 4A-30], the IC50 lay in the range of 100 to 1000 nM. Turning to `CC(O)(c1ncc(-c2cccc(Nc3nccc(C(F)(F)F)n3)c2)s1)C(F)(F)C(F)(F)C(F)(F)F` (stereo not drawn) [Example 4A-31], the IC50 lay in the range of 1000 to 10000 nM. The result for `COCC(C)(O)c1ncc(-c2cc(C)cc(Nc3nccc(C(F)(F)F)n3)c2)s1` (stereo not drawn) [Example 4A-32] reads less than 100 nM; that for `Cc1cc(Nc2nccc(C(F)(F)F)n2)cc(-c2cnc(C(C)(O)CF)s2)c1` (stereo not drawn) [Example 4A-33], less than 100 nM. As for `Cc1cc(Nc2nccc(C(F)(F)F)n2)cc(-c2cnc(C(O)(CF)CF)s2)c1` [Example 4A-34], the IC50 was less than 100 nM. To `Cc1cc(Nc2nccc(C(F)(F)F)n2)cc(-c2cnc(C(C)(O)c3ncnn3C)s2)c1` (stereo not drawn) [Example 4A-35] belongs less than 100 nM; to `Cc1cc(Nc2nccc(C(F)(F)F)n2)cc(-c2cnc(C(C)(O)c3noc(C)n3)s2)c1` (stereo not drawn) [Example 4A-36], less than 100 nM; to `Cc1cc(Nc2nccc(C(F)(F)F)n2)cc(-c2cnc(C(O)(C3CC3)C3CC3)s2)c1` [Example 4A-37], less than 100 nM. Turning to `Cc1cc(Nc2nccc(C(F)(F)F)n2)cc(-c2cnc(C(O)(CO)CO)s2)c1` [Example 4A-38], the IC50 is less than 100 nM. As to `Cc1cc(Nc2nccc(C)n2)cc(-c2cnc(C(O)(CO)CO)s2)c1` [Example 4A-39], the IC50 is less than 100 nM. The result for `Cc1cc(Nc2nccc(C(F)(F)F)n2)cc(-c2cnc(C(O)CCC#N)s2)c1` (stereo not drawn) [Example 4A-41] reads less than 100 nM; that for `C=CCCC(O)c1ncc(-c2cc(C)cc(Nc3nccc(C(F)(F)F)n3)c2)s1` (stereo not drawn) [Example 4A-42], less than 100 nM; that for `C=CCCC(C)(O)c1ncc(-c2cc(C)cc(Nc3nccc(C(F)(F)F)n3)c2)s1` (stereo not drawn) [Example 4A-43], less than 100 nM.

In the case of `Cc1cc(Nc2nccc(C(F)(F)F)n2)cc(-c2cnc(C(C)(O)CC(C)N)s2)c1` (stereo not drawn) [Example 4A-45], the IC50 was less than 100 nM. On to `Cc1cc(Nc2nccc(C(F)(F)F)n2)cc(-c2cnc(C(C)(O)CCCN)s2)c1` (stereo not drawn) [Example 4A-46], for which the IC50 was less than 100 nM. Regarding `Cc1cc(Nc2nccc(C(F)(F)F)n2)cc(-c2cnc(C(C)(O)CCCC(=O)O)s2)c1` (stereo not drawn) [Example 4A-47], the IC50 is less than 100 nM. As to `COC(=O)C(C)(C)C(C)(O)c1ncc(-c2cc(C)cc(Nc3nccc(C(F)(F)F)n3)c2)s1` (stereo not drawn) [Example 4A-48], the IC50 was less than 100 nM. `Cc1cc(Nc2nccc(C(F)(F)F)n2)cc(-c2cnc(C(O)(c3ccccn3)C(C)C)s2)c1` (stereo not drawn) [Example 4A-49]: the IC50 fell in the range of 100 to 1000 nM. As to `COc1ccsc1C(C)(O)c1ncc(-c2cc(C)cc(Nc3nccc(C(F)(F)F)n3)c2)s1` (stereo not drawn) [Example 4A-50], the IC50 was less than 100 nM.

Consider `CC(=O)c1ccc(C(C)(O)c2ncc(-c3cc(C)cc(Nc4nccc(C(F)(F)F)n4)c3)s2)cc1` (stereo not drawn) [Example 4A-51], for which the IC50 was less than 100 nM. Take `COC(=O)c1ccc(C(O)c2ncc(-c3cc(C)cc(Nc4nccc(C(F)(F)F)n4)c3)s2)cc1` (stereo not drawn) [Example 4A-52]: the IC50 was 100 to 1000 nM. With `Cc1cc(Nc2nccc(C(F)(F)F)n2)cc(-c2cnc(C(C)(O)c3cccc(C(=O)O)c3)s2)c1` (stereo not drawn) [Example 4A-53], the IC50 is less than 100 nM. Take `Cc1cc(Nc2nccc(C(F)(F)F)n2)cc(-c2cnc(C(C)(O)c3ccc([N+](=O)[O-])cc3)s2)c1` (stereo not drawn) [Example 4A-56]: the IC50 was in the range of 100 to 1000 nM. In the case of `Cc1cc(Nc2nccc(C(F)(F)F)n2)cc(-c2cnc(C(C)(O)c3ccc(CC(=O)O)cc3)s2)c1` (stereo not drawn) [Example 4A-58], the IC50 is less than 100 nM. Consider `Cc1cc(Nc2nccc(C(F)(F)F)n2)cc(-c2cnc(C(C)(O)Cc3ccc(C(=O)O)cc3)s2)c1` (stereo not drawn) [Example 4A-61], for which the IC50 was less than 100 nM. In the case of `COC(OC)C(O)(c1ccccn1)c1ncc(-c2cc(C)cc(Nc3nccc(C(F)(F)F)n3)c2)s1` (stereo not drawn) [Example 4A-62], the IC50 was less than 100 nM. `Cc1cc(Nc2nccc(C(F)(F)F)n2)cc(-c2cnc(C(C)(O)c3cc(CC(=O)O)cs3)s2)c1` (stereo not drawn) [Example 4A-63]: the IC50 is less than 100 nM. Consider `COc1cc(C(C)(O)c2ncc(-c3cc(C)cc(Nc4nccc(C(F)(F)F)n4)c3)s2)ccc1C(=O)O` (stereo not drawn) [Example 4A-64], for which the IC50 was less than 100 nM. The result for `Cc1cc(Nc2nccc(C(F)(F)F)n2)cc(-c2cnc(C(C)(O)c3cccc(OCC(=O)O)c3)s2)c1` (stereo not drawn) [Example 4A-67] reads less than 100 nM; that for `Cc1cc(Nc2nccc(C(F)(F)F)n2)cc(-c2cnc(C(C)(O)c3ccc(Br)nc3)s2)c1` (stereo not drawn) [Example 4A-70], less than 100 nM. For `Cc1cc(Nc2nccc(C(F)(F)F)n2)cc(-c2cnc(C(C)(O)c3cncc(Br)c3)s2)c1` (stereo not drawn) [Example 4A-71], the IC50 is less than 100 nM.

For `COC(=O)c1ccc(C(C)(O)c2ncc(-c3cc(C)cc(Nc4nccc(C(F)(F)F)n4)c3)s2)cc1OC` (stereo not drawn) [Example 4A-72], the IC50 fell in the range of 100 to 1000 nM.

In the case of `Cc1cc(Nc2nccc(C(F)(F)F)n2)cc(-c2cnc(C(C)(O)c3ccc(S(=O)(=O)N(C)C)cc3)s2)c1` (stereo not drawn) [Example 4A-73], the IC50 is 100 to 1000 nM. `Cc1cc(Nc2nccc(C(F)(F)F)n2)cc(-c2cnc(C(C)(O)c3cnc4sc(C(=O)O)c(C)c4c3)s2)c1` (stereo not drawn) [Example 4A-74]: the IC50 is less than 100 nM. The result for `Cc1cc(Nc2nccc(C(F)(F)F)n2)cc(-c2cnc(C(C)(O)c3cccc(-c4cccc(C(=O)O)c4)c3)s2)c1` (stereo not drawn) [Example 4A-75] reads less than 100 nM; that for `Cc1cc(Nc2nccc(C(F)(F)F)n2)cc(-c2cnc(C(C)(O)c3ccc(N4CC(C(=O)O)CC4=O)cc3)s2)c1` (stereo not drawn) [Example 4A-78], less than 100 nM; that for `COc1ccnc(Nc2cc(C)cc(-c3cnc(C(C)(O)c4ccc(C(=O)O)cc4)s3)c2)n1` (stereo not drawn) [Example 4A-79], less than 100 nM.

`Cc1cc(Nc2nccc(C(F)(F)F)n2)cc(-c2cnc(C3(O)CCC3)s2)c1` [Example 4B-1]: the IC50 was less than 100 nM. For the compound `CC1CCCC1(O)c1ncc(-c2cccc(Nc3nccc(C(F)(F)F)n3)c2)s1` (stereo not drawn) [Example 4B-2], the IC50 is less than 100 nM.

In the case of `CCOC(=O)N1C2CCC1CC(O)(c1ncc(-c3cccc(Nc4nccc(C(F)(F)F)n4)c3)s1)C2` (stereo not drawn) [Example 4B-3], the IC50 was 100 to 1000 nM.

Values taken from patent US8551984B2, “Aminopyrimidines as SYK inhibitors” (Merck Sharp & Dohme Corp., priority 2009, dated 2013).
